Source: ChEMBL document CHEMBL3745711, “Discovery of potent and orally bioavailable inhibitors of Human Uric Acid Transporter 1 (hURAT1) and binding mode prediction using homology model” (Bioorg Med Chem Lett, 2016)
One block for each compound: values may come before it.

Legend:
[1] = target: T1, Solute carrier family 22 member 12 (Homo sapiens, UniProt Q96S37); assay: Inhibition of human URAT1 expressed in HEK293 cells assessed as [14C]uric acid uptake after 12 mins by scintillation counter; format: cell-based
T1 sequence (Q96S37 whole entry): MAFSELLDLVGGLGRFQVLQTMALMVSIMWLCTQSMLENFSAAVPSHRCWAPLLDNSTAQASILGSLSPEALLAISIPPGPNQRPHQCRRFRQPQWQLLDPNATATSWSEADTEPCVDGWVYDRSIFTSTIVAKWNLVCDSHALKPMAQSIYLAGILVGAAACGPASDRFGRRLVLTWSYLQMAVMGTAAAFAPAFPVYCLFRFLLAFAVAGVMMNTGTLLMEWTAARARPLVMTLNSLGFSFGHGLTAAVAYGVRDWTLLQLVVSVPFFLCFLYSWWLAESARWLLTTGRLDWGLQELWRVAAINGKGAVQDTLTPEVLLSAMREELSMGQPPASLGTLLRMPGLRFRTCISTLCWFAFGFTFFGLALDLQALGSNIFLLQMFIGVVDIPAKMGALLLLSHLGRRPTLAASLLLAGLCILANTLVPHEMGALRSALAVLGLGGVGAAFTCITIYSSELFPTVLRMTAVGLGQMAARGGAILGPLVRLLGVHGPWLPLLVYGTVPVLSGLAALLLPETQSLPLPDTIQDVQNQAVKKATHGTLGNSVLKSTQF

[2] = Intrinsic clearance in rat liver microsomes; format: ADME; settings: read-out: CLH
[3] = Half life in rat liver microsomes; format: ADME
[4] = Intrinsic clearance in monkey liver microsomes; format: ADME, Macaca mulatta; settings: rhesus monkey, read-out: CLH
[5] = Half life in monkey liver microsomes; format: ADME, Macaca mulatta; settings: rhesus monkey
[6] = Intrinsic clearance in human liver microsomes; format: ADME; settings: read-out: CLH
[7] = Half life in human liver microsomes; format: ADME
[8] = Plasma protein binding in human; format: ADME, cell-free; settings: read-out: PPB (converted)
[9] = Tmax in Sprague-Dawley rat at 3 mg/kg, po by LC-MS/MS analysis; format: ADME, organism-based; settings: in vivo
[10] = Cmax in Sprague-Dawley rat at 3 mg/kg, po by LC-MS/MS analysis; format: ADME, organism-based; set-up: dose 3 mg/kg, route oral; settings: in vivo
[11] = AUC (0 to t) in Sprague-Dawley rat at 3 mg/kg, po by LC-MS/MS analysis; format: ADME, organism-based; settings: in vivo
[12] = Half life in Sprague-Dawley rat at 3 mg/kg, po by LC-MS/MS analysis; format: ADME, organism-based; settings: in vivo
[13] = Clearance in Sprague-Dawley rat at 3 mg/kg, po by LC-MS/MS analysis; format: ADME, organism-based; settings: in vivo
[14] = Apparent volume of distribution in Sprague-Dawley rat at 3 mg/kg, po by LC-MS/MS analysis; format: ADME, organism-based; settings: in vivo, read-out: Vz/F
[15] = Mean residence time in Sprague-Dawley rat at 3 mg/kg, po by LC-MS/MS analysis; format: ADME, organism-based; settings: in vivo
Rattus norvegicus [16] = assay: Apparent volume of distribution in Sprague-Dawley rat at 3 mg/kg, iv by LC-MS/MS analysis; format: ADME, organism-based; settings: in vivo
[17] = Tmax in beagle dog at 5 mg/kg, po by LC-MS/MS analysis; format: ADME, organism-based, Canis lupus familiaris; settings: in vivo
[18] = Cmax in beagle dog at 5 mg/kg, po by LC-MS/MS analysis; format: ADME, organism-based, Canis lupus familiaris; set-up: dose 5 mg/kg, route oral; settings: in vivo
Canis familiaris [19] = assay: AUC (0 to t) in beagle dog at 5 mg/kg, po by LC-MS/MS analysis; format: ADME, organism-based, Canis lupus familiaris; settings: in vivo
[20] = Mean residence time in beagle dog at 5 mg/kg, po by LC-MS/MS analysis; format: ADME, organism-based, Canis lupus familiaris; settings: in vivo
Canis familiaris [21] = assay: Apparent volume of distribution in beagle dog at 5 mg/kg, po by LC-MS/MS analysis; format: ADME, organism-based, Canis lupus familiaris; settings: in vivo
[22] = Bioavailability in Sprague-Dawley rat at 3 mg/kg, iv by LC-MS/MS analysis; format: ADME, organism-based; settings: in vivo
[23] = Cmax in beagle dog at 1 mg/kg, iv by LC-MS/MS analysis; format: ADME, organism-based, Canis lupus familiaris; set-up: dose 1 mg/kg, route intravenous; settings: in vivo
Canis familiaris [24] = assay: AUC (0 to t) in beagle dog at 1 mg/kg, iv by LC-MS/MS analysis; format: ADME, organism-based, Canis lupus familiaris; settings: in vivo
[25] = Mean residence time in beagle dog at 1 mg/kg, iv by LC-MS/MS analysis; format: ADME, organism-based, Canis lupus familiaris; settings: in vivo
Canis familiaris [26] = assay: Half life in beagle dog at 1 mg/kg, iv by LC-MS/MS analysis; format: ADME, organism-based, Canis lupus familiaris; settings: in vivo
Canis familiaris [27] = assay: Apparent volume of distribution in beagle dog at 1 mg/kg, iv by LC-MS/MS analysis; format: ADME, organism-based, Canis lupus familiaris; settings: in vivo
[28] = Bioavailability in beagle dog at 1 mg/kg, iv by LC-MS/MS analysis; format: ADME, organism-based, Canis lupus familiaris; settings: in vivo
[29] = Half life in Sprague-Dawley rat at 3 mg/kg, iv by LC-MS/MS analysis; format: ADME, organism-based; settings: in vivo
[30] = Tmax in cynomolgus monkey at 10 mg/kg, po by LC-MS/MS analysis; format: ADME, organism-based, Macaca fascicularis; settings: in vivo
[31] = Cmax in cynomolgus monkey at 10 mg/kg, po by LC-MS/MS analysis; format: ADME, organism-based, Macaca fascicularis; set-up: dose 10 mg/kg, route oral; settings: in vivo
[32] = AUC (0 to t) in cynomolgus monkey at 10 mg/kg, po by LC-MS/MS analysis; format: ADME, organism-based, Macaca fascicularis; settings: in vivo
[33] = Mean residence time in cynomolgus monkey at 10 mg/kg, po by LC-MS/MS analysis; format: ADME, organism-based, Macaca fascicularis; settings: in vivo
[34] = Half life in cynomolgus monkey at 10 mg/kg, po by LC-MS/MS analysis; format: ADME, organism-based, Macaca fascicularis; settings: in vivo
[35] = Clearance in cynomolgus monkey at 10 mg/kg, po by LC-MS/MS analysis; format: ADME, organism-based, Macaca fascicularis; settings: in vivo
[36] = Apparent volume of distribution in cynomolgus monkey at 10 mg/kg, po by LC-MS/MS analysis; format: ADME, organism-based, Macaca fascicularis; settings: in vivo, read-out: Vz/F
Canis familiaris [37] = assay: Half life in beagle dog at 5 mg/kg, po by LC-MS/MS analysis; format: ADME, organism-based, Canis lupus familiaris; settings: in vivo
Rattus norvegicus [38] = assay: Toxicity in Sprague-Dawley rat assessed as no adverse effect at 100 mg/kg once daily for 1 week; format: organism-based; settings: in vivo, 168 h
[39] = Toxicity in Sprague-Dawley rat administered once daily for 1 week; format: organism-based; settings: in vivo
Cynomolgus monkey = assay: Decrease in uric acid level in cynomolgus monkey serum administered as single oral dose measured after 24 hrs; format: functional, organism-based; settings: Macaca fascicularis
[40] = Cmax in Sprague-Dawley rat at 3 mg/kg, iv by LC-MS/MS analysis; format: ADME, organism-based; set-up: dose 3 mg/kg, route intravenous; settings: in vivo
[41] = AUC (0 to t) in Sprague-Dawley rat at 3 mg/kg, iv by LC-MS/MS analysis; format: ADME, organism-based; settings: in vivo
[42] = Mean residence time in Sprague-Dawley rat at 3 mg/kg, iv by LC-MS/MS analysis; format: ADME, organism-based; settings: in vivo
[43] = Clearance in Sprague-Dawley rat at 3 mg/kg, iv by LC-MS/MS analysis; format: ADME, organism-based; settings: in vivo

IC50 [1]: 1.89 µM
SMILES: O=C(O)C1(Sc2ccnc3ccc(OCCO)cc23)CCC1

IC50 [1]: 2.76 µM
SMILES: N#CCCc1ccc2nccc(SC3(C(=O)O)CCC3)c2c1

microsomal CLint [2]: 4.7 µL/min/mg
half-life [3]: 3.08 h
microsomal CLint [4]: 4.9 µL/min/mg
half-life [5]: 3.15 h
microsomal CLint [6]: 3.3 µL/min/mg
half-life [7]: 4.62 h
fraction unbound [8]: 0.001
Tmax [9]: 1 h
Cmax [10]: 2700 ng/mL
AUC(0-t) [11]: 38200 ng·h/mL
half-life [12]: 8.8 h
CL/F [13]: 2 mL/min/kg
Vd/F [14]: 1.2 L/kg
SMILES: O=C(O)C1(Sc2ccnc3ccc(C(F)(F)F)cc23)CCC1

IC50 [1]: > 10 µM
SMILES: CC(=O)Nc1ccc2nccc(SC3(C(=O)O)CCC3)c2c1

IC50 [1]: > 10 µM
SMILES: O=C(O)C1(Oc2ncnc3ccccc23)CCC1

IC50 [1]: 1.75 µM
SMILES: O=C(O)C1(Sc2ccnc3ccc(-c4ccc(C(F)(F)F)cc4)cc23)CCC1

IC50 [1]: > 10 µM
SMILES: CNC(=O)COc1ccc2nccc(SC3(C(=O)O)CCC3)c2c1

IC50 [1]: > 10 µM
SMILES: O=C1COc2cccc(SC3(C(=O)O)CCC3)c2N1

IC50 [1]: 1.19 µM
SMILES: O=C(O)C1(Sc2ccnc3ccc(-c4cccc(F)c4)cc23)CCC1

IC50 [1]: > 10 µM
SMILES: O=C(O)C1(Sc2ncnc3ccccc23)CCC1

IC50 [1]: > 10 µM
SMILES: O=C(O)C1(Sc2nccc3ncccc23)CCC1

IC50 [1]: 1.93 µM
SMILES: O=C(O)C1(Sc2ccnc3ccncc23)CCC1

IC50 [1]: > 10 µM
SMILES: O=C(O)C1(Sc2ccnc3cccnc23)CCC1

IC50 [1]: 0.448 µM
microsomal CLint [2]: 2.1 µL/min/mg
half-life [3]: 6.88 h
microsomal CLint [4]: 3 µL/min/mg
half-life [5]: 4.82 h
microsomal CLint [6]: 7.2 µL/min/mg
half-life [7]: 2.02 h
fraction unbound [8]: 0.002
Tmax [9]: 0.5 h
Cmax [10]: 8800 ng/mL
AUC(0-t) [11]: 20700 ng·h/mL
MRT [15]: 3.2 h
half-life [12]: 2.8 h
CL/F [13]: 2.5 mL/min/kg
Vd/F [14]: 0.69 L/kg
SMILES: O=C(O)C1(Sc2ccnc3ccccc23)CCC1

IC50 [1]: > 10 µM
SMILES: O=C(O)C1(Sc2ccnc3ccc(O)cc23)CCC1

IC50 [1]: 0.333 µM
SMILES: O=C(O)C1(Sc2ccnc3ccc(-c4ccccc4F)cc23)CCC1

IC50 [1]: 1.26 µM
SMILES: O=C(O)C1(Sc2ccnc3ccc(CO)cc23)CCC1

IC50 [1]: 0.352 µM
SMILES: O=C(O)C1(Sc2ccnc3ccc(Br)cc23)CC1

IC50 [1]: 0.324 µM
SMILES: O=C(O)C1(Sc2ccnc3ccc(Br)cc23)CCCC1

SMILES: O=C(O)C1(Sc2ccnc3ccc(Br)cc23)CCC1 [SHR-4640]
Vz/F (Rattus norvegicus [16]): 0.12 L/kg
Tmax [17]: 0.5 h
Cmax [18]: 7700 ng/mL
AUCt (Canis familiaris [19]): 18600 ng·h/mL
MRT [20]: 5 h
Vz/F (Canis familiaris [21]): 2.1 L/kg
bioavailability [22]: 74.8%
Cmax [23]: 4700 ng/mL
AUCt (Canis familiaris [24]): 4400 ng·h/mL
MRT [25]: 3.2 h
t1/2 (Canis familiaris [26]): 4.7 h
Vz/F (Canis familiaris [27]): 1.6 L/kg
bioavailability [28]: 86.1%
half-life [29]: 4.9 h
Tmax [30]: 0.5 h
Cmax [31]: 46900 ng/mL
AUC(0-t) [32]: 132000 ng·h/mL
MRT [33]: 6.3 h
half-life [34]: 7.3 h
CL/F [35]: 1.3 mL/min/kg
Vd/F [36]: 0.8 L/kg
t1/2 (Canis familiaris [37]): 5.2 h
Activity (Rattus norvegicus [38]): Non-toxic
MTD at 168 h [39]: 300 mg/kg
inhibition (Cynomolgus monkey): Dose-dependent effect
IC50 [1]: 0.0337 µM
microsomal CLint [2]: 4.4 µL/min/mg
half-life [3]: 3.28 h
microsomal CLint [4]: 2.6 µL/min/mg
half-life [5]: 5.8 h
microsomal CLint [6]: 1.1 µL/min/mg
half-life [7]: 13.6 h
fraction unbound [8]: 0.013
Tmax [9]: 1.2 h
Cmax [10]: 20500 ng/mL
AUC(0-t) [11]: 146000 ng·h/mL
MRT [15]: 6.8 h
half-life [12]: 4.4 h
CL/F [13]: 0.39 mL/min/kg
Vd/F [14]: 0.14 L/kg
Cmax [40]: 99700 ng/mL
AUC(0-t) [41]: 193000 ng·h/mL
MRT [42]: 6 h
clearance [43]: 0.29 mL/min/kg

IC50 [1]: 1.79 µM
SMILES: Nc1ccc2nccc(SC3(C(=O)O)CCC3)c2c1

IC50 [1]: > 10 µM
SMILES: O=C(Nc1ccc2nccc(SC3(C(=O)O)CCC3)c2c1)C1CC1
